Source: patent US20240270748A1 (Merck Patent GmbH, priority 2021, published 2024)

Legend:
[1] = system: NCI-H226 human mesothelioma tumor cells; test: NCI-H226 in vivo efficacy study; conditions: H2d Rag2 female mice, subcutaneous NCI-H226 tumors, po qd for 29 days
Experimental: NCI-H226 In Vivo Efficacy Study
7-9-week-old H2d Rag2 female mice (own breeding, Taconic-Denmark) were inoculated subcutaneously with 5×10^6 NCI-H226 human mesothelioma tumor cells in the right flank. Tumor growth and body weight was measured twice weekly using caliper. Tumor volume was calculated using the formula TV=L×W×W/2.
When tumor volume reached approximately 75-150 mm^3, animals were randomized (Day 0) into treatment groups (n=9-10/group) and treated perorally (po) once daily (qd) for 29 days with either vehicle (20% hydroxypropyl β-cyclodextrin in 50 mM PBS pH 7.4) or Compound no. 2. Compound no. 2 was tested at dosing levels of 1, 3, 10, 30, and 100 mg/kg, respectively. Results are depicted in FIG. 1 (tumor growth over time for vehicle group and each dosage group) and FIG. 2 (final tumor volume of vehicle group and each dosage group).
Statistical analysis of tumor volumes between treatment groups was done using repeated measures analysis of covariance (RM-ANCOVA) in a linear mixed effects model followed by least-squares means pairwise comparisons.
The animal experiment was performed under regulation of the German animal welfare act and in accordance with the EU laboratory animal directive for the area of animal experiments.

NCI-H226 cells = test: Viability assay in NCI-H226 (Yap-dependent) cells, CyQuant; format: cell-based, human; conditions: Homo sapiens, class symbols
Method in brief: (§1)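 Seeded cells were dosed 24 h later in duplicate (10-point, 1:3 dilutions, top 30 μM final, 0.3% DMSO) and incubated 96 h at 37 °C. Viability was read with CyQUANT DNA dye after 1 h, fluorescence bottom read. NCI-H226 in RPMI 1640 medium; SW620 YAP/TAZ CRISPR knockout in DMEM/F-12 medium.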

YAP-TEAD interaction = test: SK-HEP-1 reporter assay (8xTEAD responsive elements driving NanoLuc luciferase); format: cell-based; conditions: Homo sapiens, SK-HEP1, SK-HEP-1 reporter assay; class symbols
Method in brief: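 SK-HEP-1 cells stably carrying 8×TEAD-driven NanoLuc treated in duplicate, 10-point dose from 30 μM final, 0.3% DMSO, 24 h at 37° C. Luminescence after NanoGlo lysis/substrate addition; IC50 calculated from dose response.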

SW620 Yap KO cells = test: Viability assay in SW620 Yap KO (Yap independent) cells, CyQuant; format: cell-based; conditions: Homo sapiens, SW-620, 96 h
Method in brief: as §1

| Compound | melting point [°C] | other results |
| --- | --- | --- |
| Cn1cc2c3cc(C(=O)O)ccc3n(-c3ccc(C(F)(F)F)cc3)c2n1 [Example 2, 2-methyl-8-[4-(trifluoromethyl)phenyl]-2H,8H-pyrazolo[3,4-b]indole-5-carboxylic acid] |  | dosing levels showing maximal inhibition of tumor growth [1]: > 10 mg/kg; tumor growth inhibition compared to vehicle treated group ([1]; all tested dosing levels 1, 3, 10, 30, 100 mg/kg, p-value <0.001): Significant tumor growth inhibition |
| CCOc1ccc(-n2c3ccc(C(=O)O)cc3c3cn(C)nc32)cc1 [Example 15, 8-(4-Ethoxyphenyl)-2-methyl-2H,8H-pyrazolo[3,4-b]indole-5-carboxylic acid] | 179 to 181 |  |
| COC(=O)c1ccc2c(c1)c1nn(C)cc1n2-c1ccc(C(F)(F)F)cc1 [Example 16, Methyl 2-methyl-4-[4-(trifluoromethyl)phenyl]pyrazolo[4,3-b]indole-7-carboxylate] | 111 to 112 |  |
| Cn1cc2c(n1)c1cc(C#N)ccc1n2-c1ccc(C(F)(F)F)cc1 [Example 19, 2-methyl-4-[4-(trifluoromethyl)phenyl]pyrazolo [4,3-b]indole-7-carbonitrile] | 208 to 210 |  |
| C=CC(=O)Nc1ccc2c(c1)c1cn(C)nc1n2-c1ccc(C(F)(F)F)cc1 [Example 20, N-[2-methyl-8-[4-(trifluoromethyl)phenyl]pyrazolo[3,4-b]indol-5-yl]prop-2-enamide] | 223 to 224 |  |
| C=CC(=O)NCc1ccc2c(c1)c1cn(C)nc1n2-c1ccc(C(F)(F)F)cc1 [Example 21, N-([2-methyl-8-[4-(trifluoromethyl)phenyl]pyrazolo [3,4-b]indol-5-yl]methyl)prop-2-enamide] | 185 to 187 |  |
| Cn1cc2c3cc(CNC(=O)CCl)ccc3n(-c3ccc(C(F)(F)F)cc3)c2n1 [Example 24, 2-chloro-N-([2-methyl-8-[4-(trifluoromethyl)phenyl]pyrazolo[3,4-b]indol-5-yl]methyl)acetamide] | 221 to 222 | IC50 (NCI-H226 cells; 96 h): 100 to 1000 nM; IC50 (YAP-TEAD interaction): 100 to 10000 nM; IC50 (SW620 Yap KO cells; class symbols): 1000 to 10000 nM |
| Cc1nc2c(s1)c1cc(C(=O)O)ccc1n2-c1ccc(C(F)(F)F)cc1 [Example 25, 2-methyl-4-[4-(trifluoromethyl)phenyl]-[1,3]thiazolo[4,5-b]indole-7-carboxylic acid] | 169 to 171 |  |
| Cn1cc2c3cc(C(=O)NC4CC4)ccc3n(-c3ccc(C(F)(F)F)nc3)c2n1 [Example 27, N-cyclopropyl-2-methyl-8-[6-(trifluoromethyl)pyridin-3-yl]-2H,8H-pyrazolo[3,4-b]indole-5-carboxamide] | 300 |  |
| Cn1cc2c3cc(C(=O)NCc4ccncc4)ccc3n(-c3ccc(C(F)(F)F)cc3)c2n1 [Example 28, 2-methyl-N-[(pyridin-4-yl)methyl]-8-[4-(trifluoromethyl)phenyl]-2H, 8H-pyrazolo[3,4-b]indole-5-carboxamide] | 181 to 185 |  |
| Cn1cc2c3cc(C(=O)O[C@@H]4O[C@H](C(=O)O)[C@@H](O)[C@H](O)[C@H]4O)ccc3n(-c3ccc(C(F)(F)F)cc3)c2n1 [Example 30, (2S,3S,4S,5R,6S)-3,4,5-trihydroxy-6-{2-methyl-8-[4-(trifluoromethyl)phenyl]-2H,8H-pyrazolo[3,4-b]indole-5-carbonyloxy}oxane-2-carboxylic acid] | 110 to 111 |  |
| C[C@@H](CO)NS(=O)(=O)c1ccc2c(c1)c1nnn(C)c1n2-c1ccc(C(F)(F)F)cc1 [Example 38, N-[(2S)-1-hydroxypropan-2-yl]-3-methyl-4-[4-(trifluoromethyl)phenyl]-3H,4H-[1,2,3]triazolo[4,5-b]indole-7-sulfonamide] | 232 to 234 | IC50 (NCI-H226 cells; NCI-H226, 96 h): > 10000 nM; IC50 (YAP-TEAD interaction): 10 to 100 nM; IC50 (SW620 Yap KO cells; class symbols): > 30000 nM |
| Cn1cc2c3cc(C(=O)NC(CO)c4cscn4)ccc3n(-c3ccc(C(F)(F)F)cc3)c2n1 (stereo not shown) [Example C277, N-[2-hydroxy-1-(1,3-thiazol-4-yl)ethyl]-2-methyl-8-[4-(trifluoromethyl)phenyl]-2H,8H-pyrazolo[3,4-b]indole-5-carboxamide] |  | IC50 (NCI-H226 cells; NCI-H226, 96 h): 1 to 100 nM; IC50 (YAP-TEAD interaction): 10 to 100 nM; IC50 (SW620 Yap KO cells; n.d. = value not detectable below threshold given in parentheses): > 30000 nM |
